Structures can show the parent of a compound that is named as a salt. Where two headings read alike, the source gives them in different places. Marks after values point to notes of the source that are not given here. One block for each compound: values may come before it.
Tests used:
[1] = biological target: T1, MAO-B (Rattus norvegicus, UniProt P19643); experiment: Rat brain MAO inhibition by propargylamines (Table IA), MAO-B; type: biochemical; set-up: in a rat brain preparation of MAO; from tissue; host or cells: rat brain preparation; details: ratio between epimers, MAO-B
T1 sequence (P19643 1-520): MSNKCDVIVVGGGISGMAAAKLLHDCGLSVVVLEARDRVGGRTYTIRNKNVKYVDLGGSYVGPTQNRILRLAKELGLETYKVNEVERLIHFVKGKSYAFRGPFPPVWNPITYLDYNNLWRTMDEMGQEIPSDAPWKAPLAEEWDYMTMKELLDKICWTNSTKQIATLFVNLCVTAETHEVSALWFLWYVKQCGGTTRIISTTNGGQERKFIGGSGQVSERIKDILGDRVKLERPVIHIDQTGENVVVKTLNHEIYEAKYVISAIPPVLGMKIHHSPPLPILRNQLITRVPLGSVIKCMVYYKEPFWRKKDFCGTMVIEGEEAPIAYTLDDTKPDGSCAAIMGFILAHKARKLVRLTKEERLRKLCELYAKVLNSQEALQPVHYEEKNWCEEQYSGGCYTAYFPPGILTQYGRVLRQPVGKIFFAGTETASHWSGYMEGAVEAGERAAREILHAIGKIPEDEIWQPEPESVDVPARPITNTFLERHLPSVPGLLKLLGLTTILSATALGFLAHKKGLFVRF

[2] = biological target: T2, MAO-A (Rattus norvegicus, UniProt P21396); experiment: Rat brain MAO inhibition by propargylamines (Table IA), MAO-A; type: biochemical; set-up: MAO activity determined in brain and liver using the general technique described above; from tissue; host or cells: brain and liver of treated rats; details: ratio between epimers
T2 sequence (P21396 1-526): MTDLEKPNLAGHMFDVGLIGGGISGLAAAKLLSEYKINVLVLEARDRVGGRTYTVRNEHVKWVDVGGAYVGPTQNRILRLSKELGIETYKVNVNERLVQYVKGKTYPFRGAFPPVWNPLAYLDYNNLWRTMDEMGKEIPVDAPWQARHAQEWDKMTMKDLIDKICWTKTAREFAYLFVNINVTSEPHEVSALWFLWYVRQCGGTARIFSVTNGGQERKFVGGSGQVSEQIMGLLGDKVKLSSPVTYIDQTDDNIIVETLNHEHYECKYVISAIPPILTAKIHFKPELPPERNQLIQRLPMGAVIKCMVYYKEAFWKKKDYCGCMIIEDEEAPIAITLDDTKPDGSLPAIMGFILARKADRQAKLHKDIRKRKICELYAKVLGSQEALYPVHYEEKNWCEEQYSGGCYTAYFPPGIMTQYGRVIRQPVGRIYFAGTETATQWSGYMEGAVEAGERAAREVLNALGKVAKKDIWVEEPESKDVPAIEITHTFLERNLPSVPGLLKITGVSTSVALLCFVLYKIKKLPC

[3] = system: maximal electroshock seizures; experiment: animal or person; details: for ED50: Mus musculus, ip; for mice protected: 100 mg/kg
Source text: (§1) The MES test is a classical model to indicate efficacy for partial and generalized seizures in humans. […] Some agents, however, that prevent seizure spread have the side effect of lowering seizure threshold. These agents therefore have both proconvulsive and anticonvulsive side effects.

[4] = system: maximal electroshock seizures; details: rats, p.o., 50 mg/kg
Source text: as §1

[5] = system: α-MpT-induced hypokinesia; experiment: Reversal of α-MpT-induced hypokinesia in rats; type: in vivo
Method: The drug α-MpT is assumed to inhibit the formation of L-DOPA from tyrosine, and consequently the formation of dopamine itself. Lack of CNS dopamine is expressed as hypoactivity. Six month-old male Wistar rats (from Harlan Orkack, UK) were pretreated with saline, [R] […] Two hours later they received i.p. α-MpT at a dose of 100 mg/kg in 0.3-0.5 mL. Controls received saline. Following this, motor activity was recorded in a computerized activity cage for the duration of 10 hours. […] (+)PAI Mesylate at 2 mg/kg.

[6] = system: closed head injury; details: 0.1 mg/kg i.p. at 0, 4, 8 and 12 h after head trauma
Method: (§2) Head trauma was induced in male rats under ether anesthesia by a well calibrated weight-drop device that falls over the exposed skull, covering the left cerebral hemisphere, 1-2 mm lateral to the midline, in the midcoronal plane.
These criteria, referred to as the Neurological Severity Score (NSS), consist of a series of reflexes and motor functions. Points are given based on deficits in these criteria. At 24h the rats were reevaluated.
(§3) [R] (+)PAI Mesylate was dissolved in water. The rats were injected intraperitoneally at a dose of 0.1 mg/kg, 0, 4, 8 and 12 h after induction of head trauma. Control rats were treated with water at the same times.

[7] = system: closed head injury; details: 24 h after trauma; 0.1 mg/kg i.p. at 0, 4, 8 and 12 h
Method: as §2, §3

[8] = system: NMDA-induced cell death of cerebellum cells; experiment: cells
Method: Procedures: Cultures of mechanically dissociated neonatal rat cerebellum. […] The cerebella are then dissociated after 20-25 passages through a sterile 13 gauge, 10 cm long stainless steel needle attached to a 5 ml syringe with an inserted 45 µm pore size nylon sieve. The dissociated cells are centrifuged at 200g for 5 minutes, the supernatant discarded and the cells resuspended in enriched medium. The cell viability is determined by the trypan blue exclusion test. […] After 4 days in culture, the media are replaced with media containing the desired test compounds. Experiments are done in duplicate and repeated 2 or 3 times. […] Nerve cell survival is evaluated by phase contrast microscopy and trypan blue staining after 24 h.

[9] = system: crush injury of the optic nerve
Method: • a) General. […] At short terms, metabolic measurements were monitored in terms of the mitochondrial NADH/NAD ratio, which depends on the activity of the electron transport system, and thus indicate levels of energy production. Changes in ability of the nerve to produce energy as a consequence of injury were determined by comparing NADH levels in response to artificial transient anoxic insult before and after the injury. • b) Surface fluorometry - reflectometry. Monitoring of the intramitochondrial NADH redox state is based on the fact that NADH, unlike the oxidized form NAD^+, fluoresces when illuminated […]. A flexible Y-shaped bundle of optic fibers (light guide) was used to transmit the light to and from the optic nerve. […] Changes in the reflected light were correlated with changes in tissue absorption caused by hemodynamic effects and with movements of the optic nerve secondary to alterations in arterial blood pressure and nerve volume. […] Animal utilization was in accord with the ARVO Resolution on the use of animals in research. Male Sprague-Dawley (SPD) rats weighing 300-400g were anesthetized with sodium pentobarbitone (50 mg/kg intraperitoneally). With the animal's head held in place by a head holder, a lateral canthotomy was performed under a binocular operating microscope and the conjuctiva was incised lateral to the cornea.

[10] = system: haloperidol-induced catalepsy
Method: (+)PAI mesylate, or racemic-PAI mesylate. All drugs were administered i.p. in a volume of 0.2 mL. Two hours later, haloperidol was injected s.c. at a dose of 6mg/kg in a volume of 0.1-0.2 mL. Motor coordination tests were made at 3 hours after giving haloperidol, that is, 5 hours after administering the presumed protective drugs.
Motor coordination tests and rigidity were quantified according to three different parameters: (a) ability to walk the length of a horizontal rod, 80 cm-long; (b) ability co climb down, face down, a vertical rod, 80 cm-long; (c) duration of immobility in an unnatural sitting posture whereby the abdomen of the mouse is pressed against a "wall." Full performance as in haloperidol-untreated mice is given the score of 4 in each test, or a total of 12 in all tests. Poor performance is given a score from 1 to 3.

[11] = system: neurological deficits; details: 300 mg/kg
Method: TD50 (median toxic dose). This test measures neurological deficits by the rotorod ataxia test. A mouse is placed on a knurled rod rotating at 6 rpm. It is then determined whether a mouse has the ability to maintain its equilibrium and stay on the rod for one minute in each of three trials.

[12] = system: minimal seizure threshold; details: 141 mg/kg
Method: Timed Intravenous Infusion of Metrazol Test. This test measures the minimal seizure threshold of each animal. […] The time is then recorded (sec) from the start of infusion until the appearance of the first twitch (first focal seizure) and onset of clonus (clonic seizure).

[13] = system: minimal seizure threshold; details: literature (Kupferberg); cited from earlier work
[14] = Rattus norvegicus, 24 h, read-out: Percent Protection
[15] = Rattus norvegicus, 24 h, read-out: Surviving Cells

RELATIVE POTENCY R/S B [1]: 0.5 | RELATIVE POTENCY R/S A [2]: 4
Compound: C#CCNC1CCCc2ccccc21 (racemic) [Example 1-PAT, N-propargyl-1-aminotetralin]

Compound: C#CCN[C@@H]1CCc2ccccc21.Cl [[R](+)PAI HCl, R-(+)-N-Propargyl-1-aminoindan hydrochloride]
ED50 [3]: 79 mg/kg | animals protected from seizures [4]: three out of four

Compound: C#CCN[C@@H]1CCc2ccccc21.CS(=O)(=O)O [[R](+)PAI Mesylate, R-(+)-N-propargyl-1-aminoindan mesylate]
Score (total motor activity, 10 hours) ([5]; 2 mg/kg i.p., 2 h before α-MpT 100 mg/kg i.p., SE in the line below): 14,132** | % of control ([5]; 2 mg/kg i.p., relative to saline control, listed as [R] (+)PAI Mesylate, mesylate): 89% | % of control ([5]; 2 mg/kg i.p., relative to saline control, mesylate): about 90% | % of control ([5]; 5 mg/kg i.p.): 81% | Score (total motor activity, 10 hours) ([5]; 5 mg/kg i.p.): 12,893* | NSS 1 h [6]: 16.7 | NSS 24 h [6]: 10.2 | Δ NSS (1h - 24h) [6]: 6.5 ± 0.7 | % H2O in the brain [7]: 82.1 ± 0.6 % | inhibition at 0.01 µM [8, 14]: 2% | inhibition at 10 µM [8, 14]: 27% | viability at 1 µM [8, 15]: 22% | viability at 10 µM [8, 15]: 37% | Percent Protection ([8]; cerebellar cell cultures, 1440 min, 1 µM): 12% | Surviving Cells ([8]; rat, cerebellar cell cultures, 24 h, 0.01 µM): 12% of untreated controls | injury-induced reduction in energy production (NADH response to anoxia) ([9]; 2 mg/kg i.p. immediately after injury): blocked the injury-induced reduction in energy production | CAP amplitude (Mean ± Std. Error.) ([9]; single injection 0.5 mg/kg immediately after injury, 14 days later): 2104 ± 313 µV | mice protected [3]: one out of three | % of control ([10]; 3.0 mg/kg i.p.): 60% | Score+SE ([10]; 3.0 mg/kg i.p.): 6.4±0.5 | % of control ([10]; 5.0 mg/kg i.p.): 73% | Score+SE ([10]; 5.0 mg/kg i.p.): 8.7±0.9 | Score+SE ([10]; 10 mg/kg i.p.): 11.3±0.3 | % of control ([10]; 10 mg/kg i.p., listed as [R] (+)PAI Mesylate, mesylate): 94% | % of control ([10]; 10 mg/kg i.p., listed as [R] (+)PAI mesylate, mesylate): ≈ 94% | % of control ([10]; 15 mg/kg i.p.): 90% | Score+SE ([10]; 15 mg/kg i.p.): 10.8±0.5 | Score+SE ([10]; […] i.p. (free base), 2 h before haloperidol 6mg/kg s.c., max score 12): 7.2±1 | acute neurotoxicity ([11]; mouse, in vivo): did not show any neurotoxicity

Compound: C#CCN[C@H]1CCc2ccccc21 [[S](-)PAI HCl, S-(-)-N-Propargyl-1-aminoindan hydrochloride, reference compound]
ED50 [3]: 57 mg/kg | animals protected from seizures [4]: Four out of four

Compound: C#CCN[C@H]1CCc2ccccc21 [[S](-)PAI Mesylate, reference compound]
mice protected [3]: three out of three | time to first focal seizure and onset of clonus [12]: reduces the time | acute neurotoxicity ([11]; mice): four out of four mice showed neurotoxicity and spasticity

Compound: NC(=O)N1c2ccccc2C=Cc2ccccc21 [carbamazepine]
time to first focal seizure and onset of clonus [13]: do not show this effect

Compound: O=C1NC(=O)C(c2ccccc2)(c2ccccc2)N1 [phenytoin]
time to first focal seizure and onset of clonus [13]: do not show this effect

RELATIVE POTENCY +/- B [1]: 0.2 | RELATIVE POTENCY +/- A [2]: 3
Compound: N-Methyl-N-propargyl-1-aminotetralin [Example 2-MPAI]

Source: patent publication EP0812190B1 (priority 1993, dated 1995)
